The subject of the data set is colorectal carcinoma (HT-29 cells). Description: Detection of colorectal carcinoma (HT-29 xenograft): scintigraphic imaging and uptake of radioactivity. Type of data set: in vivo, female athymic nude mice. The procedure:
Colorectal carcinoma was produced in female athymic nude mice by injecting subcutaneously 1×10^7 HT-29 cells (M.D. Anderson Hospital and Tumor Institute Houston, Tex.) per mouse in the hind limb. After 4 weeks, tumor bearing mice (2 per group) were injected intravenously with either sodium per-technetate (TcO4^-) or Tc-99m-glucarate (approximately350 uCi/mouse). […] After imaging at the last time point, animals were killed, tumors and organs were weighed and quantitated for the distribution of radioactivity.

The mark [1] stands for this setting: 22 hours, approximately 350 uCi/mouse i.v.

Turning to `[Na+].[O]=[Tc](=[O])(=[O])[O-]` [TcO4^-, sodium pertechnetate], under setting [1], the “% ID/gm at tumor site” value turned out to be 0.29 ± 0.00 % ID/gm, the tumor/blood is on record as 2.08 ± 0.21 and the tumor/muscle is 12.08 ± 3.41. For the same compound, the tumor visualization result (images at 3, 5 and 24 hours) is on record as “no tumor visualization was detected”. Moreover, the “uptake of radioactivity seen in scintigraphic images” value (images at 3, 5 and 24 hours after injection) was “nonspecific uptake of radioactivity at the thyroid and stomach”.

The record behind these values is patent US4946668A, “Tumor imaging with technetium labelled glucarate” (Centocor, Inc., priority 1988, dated 1990).
